The subject of assay [1] is Salmonella typhimurium wild type. It counts as cell-based. The procedure:
Preliminary characterization of the utilization of large numbers of carbon sources can be carried out using manual or automated taxonomic screening devices, such as the Biolog MT, ES, GN or GP Microplate™. Alternatively, this can be performed using commercially available components. […] Briefly, strains were swabbed onto TSA plates and grown at a permissive temperature of 30° C. for 6 hours to provide an inoculum. The inoculum (MacFarland standard ˜1 in 0.89% sterile saline solution) was prepared as per Biolog “Instructions for Use” handbook, with the exception that leucine was added to correct for mutants housed in strains which were in a leucine-deficient background. Inoculum was added to Biolog GN or ES plates and incubated at the semipermissive temperature of 35° C. overnight (˜21 hr). Carbon source utilization is read colorimetrically in a microplate reader at 600 nm. Substrates that are not used similarly by wild-type and mutant are identified. […] Typically, these steps were performed using Biolog MT plates or by using a redox indicator (such as tetrazolium violet, 0.0001%) in a minimal medium with a sole carbon source (substrate being tested), supplemented with a small amount of tryptone (0.06%) or proteose peptone (0.2%). It was possible to do this in 96-well microtiter plate format, which will be adaptable to high throughput or multichannel screening.

Assay [2] deals with Salmonella typhimurium temperature sensitive mutant gyrA212 (strain 7533). It counts as cell-based. From the text: A Salmonella typhimurium parent strain 7389 was used to form a collection of temperature sensitive mutants. […] Complementation of the mutant phenotype was done. In the case of the three mutants described in the data of this figure (gyrA202, gyrA208, gyrA212) the complemented mutants were identified to be in the A subunit of the bacterial DNA gyrase enzyme. Each mutant was altered in a different portion (see number of mutant) of the A subunit. […] The data are expressed as fold increases in susceptibility. A four-fold increase in susceptibility is the minimum change to be considered significant in this example.
Referring to FIG. 1, the experiments were essentially by the methods outlined by the National Committee for Clinical Laboratory Standards (NCCLS). Bacteria were grown in Mueller-Hinton (MH) broth with agitation at 30° C.
The antibiotic dilution ranges used were:
Novobiocin: Range 128-0 μg/ml. Coumermycin A1: Range 128-0 μg/ml. […] Norfloxacin: Range 8-0 μg/ml. Mitomycin C: Range 8-0 μg/ml Phenylmercuric acetate: Range 32-0 μg/ml. 4-Nitroquinoline Oxide: Range 32-0 μM Rifampicin: Range 128-0 μg/ml. Gentamicin: Range 32-0 μg/ml. Streptomycin: Range 128-0 μg/ml. Cefotaxime: Range 8-0 μg/ml. Ampicillin: Range 32-0 μg/ml. Phosphonomycin (or fosfomycin): Range 128-0 μg/ml. […]

Setting [3] is: wild type with sub-MIC levels of antibiotic.
Where [4] appears, read: wild type with sub-MIC levels of antibiotic, Biolog GN plates, 35° C.

Experimental findings from patent publication US20010006794A1, “SCREENING FOR MODULATORS OF BIOMOLECULES” (priority 1995, published 2001) are described below.

In the case of `Cn1nnnc1SCC1=C(C(=O)O)N2C(=O)[C@@H](NC(=O)[C@H](O)c3ccccc3)[C@H]2SC1` [cefamandole], the “utilization of D-alanine or D-serine as carbon source markers” value in assay [1] (wild type strain, sub-MICs of cell wall synthesis inhibitor) is “affected”. The “overlap of carbon source utilization phenotype with the gyraseA/ciprofloxacin induced phenotype” value in assay [1] (setting [3]) amounted to 40%.
`CCn1cc(C(=O)O)c(=O)c2cc(F)c(N3CCNCC3)cc21` [norfloxacin]: the “fold increase in susceptibility” value in assay [2] came out at 8 fold.
On to `O=C(O)c1cn(C2CC2)c2cc(N3CCNCC3)c(F)cc2c1=O` [ciprofloxacin], for which, in assay [1] (setting [4]), the “carbon source utilization phenotype compared with one of the gyraseA mutant alleles” value was “reproduces the phenotype of one of the mutant alleles perfectly” and the “overlap of carbon source utilization phenotype with the other two gyraseA mutant alleles” value is on record as 46-71%.
On to `O=C(N[C@H](CO)[C@H](O)c1ccc([N+](=O)[O-])cc1)C(Cl)Cl` [chloramphenicol], for which the “overlap of carbon source utilization phenotype with the gyraseA/ciprofloxacin induced phenotype” value in assay [1] (setting [3]) was 40%.
For `CO[C@@H]1[C@@H](OC(N)=O)[C@@H](O)[C@H](Oc2ccc3c(O)c(NC(=O)c4ccc(O)c(CC=C(C)C)c4)c(=O)oc3c2C)OC1(C)C` [novobiocin], in assay [1] (setting [3]), the “carbon source utilization phenotype compared with gyraseA mutants and the ciprofloxacin induced phenotype” value was “very similar phenotype”.
